The source of these data is patent US4916121A, “Antitumor composition comprising pyrimidine type nucleic acid derivative and 1-[(2-hydroxyethoxy)methyl]uracil derivative” (Teijin Limited, priority 1985, dated 1990).

Molecules are shown by their SMILES. Where two headings read alike, the source gives them in different places. A value given as a limit tells only on which side of the number the result lay.

Series [1] has as its target T1, pyrimidine nucleoside phosphorylase (Rattus norvegicus, UniProt F7F0D5).
T1 construct: small intestine homogenates of an SD-strain male rat and a male beagle; from tissue; host or cells: small intestine homogenate of SD-strain male rat
As to the kind of experiment: Inhibition of pyrimidine nucleoside phosphorylase activity in rat small intestine homogenate (decomposition of 5-fluoro-2'-deoxyuridine). In kind it is biochemical, SD-strain rat. Here is the method:
(§1) Inhibitory effects of 1-[(2-hydroxyethoxy)methyl]-5-methyluracil, 1-[(2-hydroxyethoxy)methyl]-5-fluoro-uracil, 1-[(2-hydroxyethoxy)methyl]-5-bromouracil on pyrimidine nucleoside phosphorylase activity in the small intestine homogenates of an SD-strain male rat and a male beagle were assayed with a lowering in decomposition rate of 5-fluoro-2'-deoxyuridine (concentration: 0.025 mM) and compared with the same effects of thymidine and deoxyuridine.

Series [2] deals with pyrimidine nucleoside phosphorylase. As to the kind of experiment: Inhibition of pyrimidine nucleoside phosphorylase activity in beagle small intestine homogenate (decomposition of 5-fluoro-2'-deoxyuridine). In kind it is biochemical. The note with it: for Half-life of 5-fluoro-2'-deoxyuridine in presence of inhibitor / Inhibitory percentage: 0.4% w/v beagle small intestine homogenate, pH 7.0, 37° C. Here is the method: as §1

Test in series [3]: as above
The note with it: dog, small intestine homogenate, pH 7. In kind it is biochemical. On the procedure: as §1

Series [4] can be described thus: Lipid solubility: retention time in reversed phase HPLC (Lichrosorb RP-18). Particulars: RP-18 4.0 × 130 mm, 1.2 ml/min, index of lipid solubility. In kind it is physicochemical. On the procedure: The retention time of the compounds of the present invention in reversed phase system high performance liquid chromatograph (Lichrosorb RP-18 column) was measured in two kinds of solvent systems.

The test system of series [5] is mouse leukemia L1210. As to the kind of experiment: Antitumor effect on mouse leukemia L1210 (increase in life span), oral administration. In kind it is in vivo. The note with it: days 1, 3, 5. The text has this:
The antitumor effect for mouse leukemia L1210 by a simultaneous oral administration of the compounds of the present invention 3',5'-didodecanoyl-5-fluoro-2'-deoxyuridine and 1-[[2-(octadecanoyloxy)ethoxy]methyl]-5-methyluracil was compared with those of (a) 5-fluoro-2'-deoxyuridine alone, (b) 3',5'-didodecanoyl-5-fluoro-2'-deoxyuridine alone, and (c) a simultaneous oral administration of 3',5'-didodecanoyl-5-fluoro-2'-deoxyuridine and 1-[(2-hydroxyethoxy)methyl]-5-methyluracil.
10^5 ascite tumor cells of mouse leukemia L1210 7 days after transplantation were transplanted intraperioneally into mouse (.male.8 weeks, Ca 25-26 g, 5 mice/group) and provided for experiments. 24 hours after transplantation of the tumor cells, the pharmaceuticals were administered orally three times on day 1, day 3 and day 5.
The antitumor effect of the pharmaceuticals were shown by the increase in life span (ILS) of the group administered with pharamaceuticals relative to the control group (with no pharmaceutical administered) (line extension %).

Series [6] is described as follows: Hydrophilic properties: retention time in normal phase HPLC (Nucleosil 5CN). Format: physicochemical. The note with it: n-hexane:ethanol = 88:12, 1.2 ml/min, index of hydrophilic properties. On the procedure:
The retention times of the compounds of the present invention in normal phase system high performance liquid chromatograph (Nucleosil) 5 CN column were measured.

A short description of series [7]: Enzymatic hydrolyzability in rat duodenum epithelial homogenate. In kind it is in vitro ADME. The note with it: rat duodenum epithelial homogenate 1% w/v, pH 7.0, 37° C. Here is the method: The hydrolysis rates of the compounds of the present invention were measured at 37° C. in rat duodenum epithelial homogenate (1%, w/v; pH 7.0).
The subject of series [8] is thymidine phosphorylase. In words: Inhibition of thymidine phosphorylase activity and enzymatic stability in small intestine. In kind it is biochemical. Particulars: rat and beagle small intestine. Here is the method: as §1
Series [9] has as its target T1, pyrimidine nucleoside phosphorylase. In words: Inhibition of pyrimidine nucleoside phosphorylase activity in rat small intestine homogenate (decomposition of 5-fluoro-2'-deoxyuridine). In kind it is biochemical, SD-strain rat. The note with it: inhibitor 0.025 mM; 0.09% w/v rat small intestine homogenate, pH 7.0, 37° C.
A short description of series [10]: Inhibition of pyrimidine nucleoside phosphorylase activity in beagle small intestine homogenate (decomposition of 5-fluoro-2'-deoxyuridine). In kind it is biochemical. The note with it: dog; inhibitor 0.025 mM; 0.4% w/v beagle small intestine homogenate, pH 7.0, 37° C.
Series [11] deals with pyrimidine nucleoside phosphorylase. The note with it: cited from earlier work.
Series [12] has as its system established cell line derived from a mouse. The note with it: same molar concentration, in vitro; cited from earlier work.
The mark [13] stands for this setting: rat, small intestine homogenate, pH 7.
[14] abbreviates: inhibitor 0.025 mM, 0.09% w/v rat small intestine homogenate, pH 7.0, 37° C.
Setting [15] is: pH 7, read-out: Inhibitory percentage.
The mark [16] stands for this setting: inhibitor 0.025 mM, 0.09% w/v rat small intestine homogenate, pH 7.0, 37° C., read-out: Inhibitory percentage.

T1 sequence (F7F0D5 1-312): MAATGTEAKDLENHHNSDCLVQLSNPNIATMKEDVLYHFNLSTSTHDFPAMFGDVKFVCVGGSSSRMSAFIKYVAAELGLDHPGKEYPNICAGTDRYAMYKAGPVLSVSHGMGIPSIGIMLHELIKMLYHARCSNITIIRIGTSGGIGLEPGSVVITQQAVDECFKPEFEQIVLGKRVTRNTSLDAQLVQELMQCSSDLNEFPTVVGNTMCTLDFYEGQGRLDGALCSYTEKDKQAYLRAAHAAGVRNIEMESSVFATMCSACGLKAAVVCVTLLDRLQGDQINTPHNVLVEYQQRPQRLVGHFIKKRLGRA

Regarding `O=c1[nH]c(=O)n(COCCO)cc1Br` [1-[(2-hydroxyethoxy)methyl]-5-bromouracil], the “Half-life of 5-fluoro-2'-deoxyuridine in presence of inhibitor” value (shortened to “Half-life … of inhibitor”) in [1] (inhibitor 0.01 mM, 0.09% w/v rat small intestine homogenate, pH 7.0, 37° C.) was determined as 0.542 h; in [2] (inhibitor 0.01 mM) it was 1.04 h. Further, in series [1] (inhibitor 0.01 mM, 0.09% w/v rat small intestine homogenate, pH 7.0, 37° C., read-out: Inhibitory percentage), the inhibition at 10 µM worked out at 47.7%. The half-life at 10 µM in series [1] (setting [13]) and in [3] was above 16.7 h throughout. The Inhibitory percentage in series [2] (inhibitor 0.01 mM) stood at 55.5%.
For the compound `CCCCCCCCCCCC(=O)OC[C@H]1O[C@@H](n2cc(F)c(=O)[nH]c2=O)C[C@@H]1OC(=O)CCCCCCCCCCC` [3'5'-didodecanoyl-5-fluoro-2'-deoxyuridine], the “Retention time (b) Acetonitrile:acetic acid (999:1)” value in series [4] was found to be 3.00 min. The “Retention time (a) Acetonitrile:water (19:1)” value in [4] was 3.96 min. Moreover, the ILS in series [5] (10 mg/kg/one dose alone) is listed as 0%; in series [5] (30 mg/kg/one dose alone), 5%; in series [5] (100 mg/kg/one dose alone) it was 15%; in series [5] (300 mg/kg/one dose alone), 40%.
As to `CCCCCCCCCCCCCC(=O)OC[C@H]1O[C@@H](n2cc(F)c(=O)[nH]c2=O)C[C@@H]1OC(=O)CCCCCCCCCCCCC` [3'5'-ditetradecanoyl-5-fluoro-2'-deoxyuridine], the Retention time in series [6] amounted to 5.38 min. Also, the Hydrolysis rate constant in series [7] was found to be 0.027 min.^-1.
`O=c1ccn([C@H]2C[C@H](O)[C@@H](CO)O2)c(=O)[nH]1` [Deoxyuridine, reference compound]: the figures for the “Half-life … of inhibitor” value in [1] (setting [14]) and in series [2] (inhibitor 0.025 mM) were 0.37 h and 0.508 h, respectively. The inhibition at 25 µM in [1] (setting [15]) came out at 23.4%. For the same compound, the half-life at 25 µM in [1] (setting [13]) amounted to 1.1 h; in series [3], 0.538 h. This compound also showed an Inhibitory percentage in [2] (inhibitor 0.025 mM) of 8.8%.
As for `Cc1cn([C@H]2C[C@H](O)[C@@H](CO)O2)c(=O)[nH]c1=O` [Thymidine, reference compound], the “inhibitory activity against thymidine phosphorylase (in words)” value in series [8] is on record as “more potenty inhibited by thymidine than by deoxyuridine”. Also, the “Half-life … of inhibitor” value turned out to be 0.51 h in [1] (setting [14]) and 0.968 h in series [2] (inhibitor 0.025 mM). In addition, the inhibition at 25 µM in [1] (setting [15]) is 44.4%. Moreover, the half-life at 25 µM in series [9] stood at 1.48 h; in [10], 0.45 h. Besides, the Inhibitory percentage in [2] (inhibitor 0.025 mM) turned out to be 52.2%.
Take `CCCCCCCCCCCCCCCCCCCC(=O)OCCOCn1cc(C)c(=O)[nH]c1=O` [1-[[2-(eicosanoyloxy)-ethoxy]-methyl]-5-methyluracil]: in series [6], the Retention time stood at 5.48 min. The compound also had a Hydrolysis rate constant in series [7] of 0.052 min.^-1.
As for `O=c1[nH]c(=O)n([C@H]2C[C@H](O)[C@@H](CO)O2)cc1F` [5-Fluoro-2'-deoxyuridine, 5-fluoro-2'-deoxyuridine, reference compound], the “Half-life of 5-fluoro-2'-deoxyuridine” value worked out at 0.283 h in [1] (rat, small intestine homogenate, 25 µM, pH 7) and 0.463 h in series [2] (dog, small intestine homogenate, 25 µM, pH 7). The “half-life in blood (in words)” value in [11] (after administration in living bodies) is “shorter half-life in blood”. Further, in series [11] (living bodies), the “decomposition by pyrimidine nucleoside phosphorylase (in words)” value was “rapidly decomposed”. The ILS in series [5] (10 mg/kg/one dose alone) was found to be 15%; in [5] (30 mg/kg/one dose alone) it was 10%; in series [5] (100 mg/kg/one dose alone), 15%; in series [5] (300 mg/kg/one dose alone), 10%. In addition, in series [12], the “antitumor activity relative to 5-fluorouracil” value is listed as 100 fold.
On to `O=c1[nH]c(=O)n(COCCO)cc1F` [1-[(2-hydroxyethoxy)methyl]-5-fluorouracil], for which the “Half-life … of inhibitor” value in series [1] (setting [14]) is 0.823 h; in series [2] (inhibitor 0.025 mM), 0.78 h. Also, the inhibition at 25 µM in series [1] (setting [16]) is 65.6%. Moreover, the half-life at 25 µM in [1] (setting [13]) and in series [3] was above 16.7 h throughout. This compound also had an Inhibitory percentage in [2] (inhibitor 0.025 mM) of 40.6%.
For `CCCCCCCCCCCCCCCC(=O)OCCOCn1cc(C)c(=O)[nH]c1=O` [1-[[2-(Hexadecanoyloxy)-ethoxy]-methyl]-5-methyluracil], in [4], the “Retention time (b) Acetonitrile:acetic acid (999:1)” value is 3.15 min and the “Retention time (a) Acetonitrile:water (19:1)” value turned out to be 3.53 min.
Regarding `Cc1cn(COCCO)c(=O)[nH]c1=O` [1-[(2-hydroxyethoxy)methyl]-5-methyluracil], the “Half-life … of inhibitor” value in series [1] (setting [14]) was determined as 1.677 h; in [2] (inhibitor 0.025 mM), 1.42 h. Further, the inhibition at 25 µM in series [1] (setting [16]) worked out at 83.1%. Also, the half-life at 25 µM in series [1] (setting [13]) and in series [3] was above 16.7 h each time. In addition, the Inhibitory percentage in series [2] (inhibitor 0.025 mM) stood at 67.3%. The compound also had an ILS in series [5] (200 mg/kg/one dose alone) of 12%.
In series [5] (450 mg/kg/one dose alone), `CCCCCCCCCCCCCCCCCC(=O)OCCOCn1cc(C)c(=O)[nH]c1=O` [1-[[2-(octadecanoyloxy)ethoxy]methyl]-5-methyluracil] gave an ILS of 12%.
